Reference: ChEMBL document CHEMBL1201862, “PubChem BioAssay data set” (2004)
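Interpolation was linear, between the two tested concentrations surrounding the appropriate level; five concentrations were tested over 48 hours in 96-well plates. Abbreviation: GI50, concentration required for 50% inhibition of growth.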 The source made the active and inactive calls. Rule as the data show it: active = GI50 up to about 1.1 µM and inactive = higher.

Columns and labels:
Assay in all cases: NCI-60 cell line screen, 48 h
[1] = system: Malme-3M
[2] = system: COLO 205
[3] = system: ACHN
[4] = system: LXFL 529
[5] = system: UACC-62
[6] = system: SF-539
[7] = system: HOP-92
[8] = system: RXF 393
[9] = system: TK-10
[10] = system: SNB-75
[11] = system: OVCAR-5
[12] = system: A549
[13] = system: HCC 2998
[14] = system: MOLT-4
[15] = system: SF-268
[16] = system: K562
[17] = system: OVCAR-8
[18] = system: UACC-257
[19] = system: CAKI-1
[20] = system: SK-MEL-5

Measured: GI50

O=C(CC(=O)N1N=C(n2ccc3ccccc32)CC1c1ccccc1)Nc1cccc(Cl)c1 (centres undefined)
inactive: [1] > 100 µM | [2] > 100 µM | [3] > 100 µM | [4] > 100 µM | [5] > 100 µM | [6] > 100 µM | [7] 16 µM | [8] > 100 µM | [9] > 100 µM | [10] 60.4 µM | [11] > 100 µM | [12] > 100 µM | [13] > 100 µM | [14] > 100 µM | [15] > 100 µM | [16] > 100 µM | [17] > 100 µM | [18] > 100 µM

CCSc1nc2n(c(=S)n1)CCN2C
inactive: [1] 17.1 µM | [19] 13.5 µM | [3] 19.1 µM | [4] 13.4 µM | [5] 12.1 µM | [6] 19.2 µM | [20] 15.2 µM | [8] 7.89 µM | [10] 15.5 µM | [11] 21.4 µM | [12] 24.5 µM | [13] 16.3 µM | [14] 12.2 µM | [15] 27.9 µM | [16] 27.7 µM | [17] 20.7 µM | [18] 12.1 µM

CCCCCCCCCCCCCS(=O)(=O)NCC(N)=O
inactive: [1] > 100 µM | [2] > 100 µM | [3] > 100 µM | [4] > 100 µM | [5] > 100 µM | [6] > 100 µM | [7] > 100 µM | [20] > 100 µM | [8] > 100 µM | [9] > 100 µM | [10] 25.6 µM | [11] > 100 µM | [12] > 100 µM | [13] > 100 µM | [15] > 100 µM | [17] > 100 µM | [18] > 100 µM

O=c1[nH]cc(COCCO)c(=O)[nH]1
inactive: [1] > 100 µM | [2] > 100 µM | [19] > 100 µM | [3] > 100 µM | [4] > 100 µM | [5] > 100 µM | [6] > 100 µM | [7] > 100 µM | [20] > 100 µM | [8] > 100 µM | [9] > 100 µM | [10] > 100 µM | [11] > 100 µM | [12] > 100 µM | [14] > 100 µM | [15] > 100 µM | [16] > 100 µM | [17] > 100 µM | [18] > 100 µM

O=C1NC(=O)/C(=N\c2cccc3c(=O)[nH][nH]c(=O)c23)C(c2nc3ccccc3s2)C1=O (centres undefined)
inactive: [1] > 100 µM | [2] > 100 µM | [19] > 100 µM | [3] > 100 µM | [4] > 100 µM | [5] > 100 µM | [7] > 100 µM | [20] > 100 µM | [8] > 100 µM | [9] > 100 µM | [10] > 100 µM | [12] > 100 µM | [13] 89.7 µM | [14] 71.1 µM | [15] > 100 µM | [17] > 100 µM | [18] > 100 µM

O=C(NN1C(=O)C(Cl)C1c1cccc(Cl)c1)c1ccccc1O (centres undefined)
inactive: [1] > 100 µM | [3] > 100 µM | [4] > 100 µM | [5] > 100 µM | [6] > 100 µM | [20] > 100 µM | [8] > 100 µM | [9] > 100 µM | [10] > 100 µM | [12] > 100 µM | [14] > 100 µM | [15] > 100 µM | [16] > 100 µM | [17] > 100 µM | [18] > 100 µM

CCN(CC)CCC1(C2CCCCC2)CCC(=O)NC1=O (centres undefined)
inactive: [1] > 100 µM | [2] > 100 µM | [19] > 100 µM | [3] > 100 µM | [4] > 100 µM | [5] > 100 µM | [6] > 100 µM | [20] > 100 µM | [8] > 100 µM | [9] > 100 µM | [10] > 100 µM | [11] > 100 µM | [12] > 100 µM | [13] > 100 µM | [14] > 100 µM | [15] > 100 µM | [16] > 100 µM | [17] > 100 µM | [18] > 100 µM

CCCC(C(=O)OC)C1N/C(=N/C#N)N(Cc2ccccc2)C1=O (centres undefined)
inactive: [1] > 100 µM | [2] > 100 µM | [19] > 100 µM | [3] > 100 µM | [4] > 100 µM | [5] > 100 µM | [20] > 100 µM | [8] > 100 µM | [9] > 100 µM | [10] 22.9 µM | [11] > 100 µM | [12] > 100 µM | [13] > 100 µM | [14] > 100 µM | [15] > 100 µM | [16] 66.4 µM | [17] > 100 µM | [18] > 100 µM

CC1=C(C(=O)CC(=O)C(=O)Nc2cccc(C)c2C)Sc2ccccc2N1
inactive: [1] > 100 µM | [19] > 100 µM | [3] > 100 µM | [4] > 100 µM | [5] > 100 µM | [6] > 100 µM | [7] > 100 µM | [20] > 100 µM | [8] > 100 µM | [9] > 100 µM | [11] > 100 µM | [12] > 100 µM | [13] > 100 µM | [14] > 100 µM | [15] > 100 µM | [16] > 100 µM | [17] > 100 µM | [18] > 100 µM

CC1=C(C(=O)Nc2ccccc2C)C(c2ccc(Cl)cc2)C(C(=O)Nc2ccccc2C)=C(C)N1
inactive: [1] > 100 µM | [2] > 100 µM | [19] > 100 µM | [3] > 100 µM | [4] > 100 µM | [5] > 100 µM | [6] > 100 µM | [7] > 100 µM | [20] > 100 µM | [8] > 100 µM | [9] > 100 µM | [11] > 100 µM | [12] > 100 µM | [13] > 100 µM | [14] > 100 µM | [15] > 100 µM | [16] > 100 µM | [17] > 100 µM | [18] > 100 µM

N#CCCN(c1ccc(/C=N/c2nc(-c3ccccc3)cs2)cc1)S(=O)(=O)c1ccccc1
inactive: [1] > 100 µM | [2] > 100 µM | [19] 25.8 µM | [4] 56.9 µM | [5] 59.2 µM | [6] > 100 µM | [20] 35 µM | [9] 86.5 µM | [10] 19.2 µM | [11] > 100 µM | [12] 76.2 µM | [13] 64.9 µM | [14] 44.7 µM | [15] 56.1 µM | [16] 35.6 µM | [17] > 100 µM | [18] 96.4 µM

N=C(N)NS(=O)(=O)c1ccc(NC(=O)c2cccc3c(N)c4ccccc4nc23)cc1
inactive: [1] > 100 µM | [2] > 100 µM | [19] > 100 µM | [3] > 100 µM | [4] 60.1 µM | [5] > 100 µM | [6] > 100 µM | [20] > 100 µM | [8] > 100 µM | [9] > 100 µM | [10] 96.2 µM | [11] > 100 µM | [12] > 100 µM | [13] > 100 µM | [14] 42 µM | [15] > 100 µM | [16] > 100 µM | [17] > 100 µM | [18] > 100 µM

CC(=O)/C(=C\c1ccccc1)C(=O)Nc1ccccc1
inactive: [1] > 100 µM | [19] > 100 µM | [3] > 100 µM | [4] > 100 µM | [5] > 100 µM | [6] > 100 µM | [7] > 100 µM | [20] > 100 µM | [8] > 100 µM | [9] > 100 µM | [11] > 100 µM | [12] > 100 µM | [13] > 100 µM | [14] > 100 µM | [15] > 100 µM | [16] > 100 µM | [17] > 100 µM | [18] > 100 µM

O=C1CC(C2(O)C(=O)Nc3ccc([N+](=O)[O-])cc32)c2ccccc21 (centres undefined)
inactive: [1] 40.8 µM | [2] 25.4 µM | [3] 54.1 µM | [4] 16.3 µM | [5] 19.5 µM | [6] 32.5 µM | [7] 35 µM | [20] 27.7 µM | [8] 24.8 µM | [9] > 100 µM | [10] 39.5 µM | [11] > 100 µM | [12] 62.4 µM | [13] 20.6 µM | [14] 20.7 µM | [15] 18.5 µM | [16] 19.7 µM | [17] 66.4 µM | [18] 47.1 µM

O=C1c2ccccc2NC2C(O)c3ccccc3N12 (centres undefined)
inactive: [1] 3.98 µM | [2] 41.1 µM | [19] 34.8 µM | [3] 40.8 µM | [5] 23.6 µM | [6] > 100 µM | [7] > 100 µM | [20] 52.7 µM | [8] > 100 µM | [9] 99.3 µM | [10] > 100 µM | [11] 82.2 µM | [12] 10.9 µM | [13] 42.9 µM | [14] 21 µM | [15] > 100 µM | [16] 13.9 µM | [17] 49.1 µM | [18] 15.3 µM
